Experimental data reported in patent publication US20260083704A1, “LXR MODULATORS WITH BICYCLIC CORE MOIETY FOR TREATING DYSLIPIDEMIAS” (OrsoBio, Inc., priority 2022, published 2026).
Where two headings read alike, the source gives them in different places.

How the values were obtained:
[1] = target: T1, GST-LXRβ ligand-binding domain (Homo sapiens, UniProt P55055); test: TR-FRETβ activity assay (NCoA3 coactivator peptide recruitment); format: biochemical; details: 1 μM 24(S)-25-epoxycholesterol prestimulation
T1 construct: amino acids 156-461; NP009052; made in house; host or cells: E. coli
T1 sequence (P55055 156-460 limits assumed): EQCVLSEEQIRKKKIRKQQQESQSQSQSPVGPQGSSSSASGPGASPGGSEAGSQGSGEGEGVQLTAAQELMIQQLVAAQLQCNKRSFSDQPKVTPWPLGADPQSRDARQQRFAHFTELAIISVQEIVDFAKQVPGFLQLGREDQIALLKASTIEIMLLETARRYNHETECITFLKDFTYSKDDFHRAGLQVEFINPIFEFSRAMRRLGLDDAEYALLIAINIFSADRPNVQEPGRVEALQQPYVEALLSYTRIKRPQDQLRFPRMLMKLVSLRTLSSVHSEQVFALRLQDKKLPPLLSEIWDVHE
In short: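 Inverse-agonist format, with LXR prestimulated by 1 μM 24(S)-25-epoxycholesterol in pH 6.8 Tris/HCl, 240 mM KCl, BSA and Triton. Ten concentrations from 50 μM to 0.002 μM were equilibrated 1 h at 4° C with 76 nM GST-LXRβ LBD and 400 nM biotin-NCoA3 peptide. Peptide recruitment detected by 665/615 nm TR-FRET.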

LXRβ [2] = target: T2, LXRβ (Homo sapiens, UniProt P55055); test: LXR Gal4 reporter transient transfection assay (mammalian two-hybrid, HEK293), LXRβ; format: cell-based; details: ligand-binding domain (LBD) of LXRβ, HEK293; read-out: LBD-M2H Gal4β
T2 construct: LXRβ (amino acids 156-461); expressed in transfected cells; host or cells: HEK293
T2 sequence (P55055 156-460): T1 sequence (P55055 156-460 limits assumed)
Procedure: (§1) LXRα and LXRβ activity status was determined via detection of interaction with coactivator and corepressor proteins in mammalian two-hybrid experiments (M2H). For this, via transient transfection the full length (FL) proteins of LXRα (amino acids 1-447; NP005684; SEQ ID NO:1) or LXRβ-(amino acids 1-461; NP009052; SEQ ID NO:2) or the ligand-binding domains (LBD) of LXRα (amino acids 155-447 SEQ ID NO:3) or LXRβ (amino acids 156-461; SEQ ID NO:4) were expressed from pCMV-AD (Stratagene) as fusions to the transcriptional activation domain of NFkB. As cofactors, domains of either the steroid receptor coactivator 1 (SRC1; amino acids 552-887; SEQ ID NO:5) or of the corepressor NCoR (amino acids 1906-2312; NP006302; SEQ ID NO:6) were expressed as fusions to the DNA binding domain of the yeast transcription factor GAL4 (from pCMV-BD; Stratagene). Interaction was monitored via activation of a coexpressed Firefly Luciferase Reporter gene under control of a promoter containing repetitive GAL4 response elements (vector pFRLuc; Stratagene). Transfection efficiency was controlled via cotransfection of constitutively active pRL-CMV Renilla reniformis luciferase reporter (Promega). HEK293 cells were grown in minimum essential medium (MEM) with 2 mM L-glutamine and Earle's balanced salt solution supplemented with 8.3% fetal bovine serum, 0.1 mM non-essential amino acids, 1 mM sodium pyruvate, at 37° C. in 5% CO2. 3.5×10^4 cells/well were plated in 96-well cell culture plates in growth medium supplemented with 8.3% fetal bovine serum for 16-20 h to ˜90% confluency. For transfection, medium was taken off and LXR and cofactor expressing plasmids as well as the reporter plasmids are added in 30 μL OPTIMEM/well including polyethylene-imine (PEI) as vehicle. Typical amounts of plasmids transfected/well: pCMV-AD-LXR (5 ng), pCMV-BD-cofactor (5 ng), pFR-Luc (100 ng), pRL-CMV (0.5 ng). Compound stocks were prepared in DMSO, prediluted in MEM to a total volume of 120 μL, and added 4 h after addition of the transfection mixture (final vehicle concentration not exceeding 0.2%). Cells were incubated for additional 16 h, lysed for 10 min in 1×Passive Lysis Buffer (Promega) and Firefly and Renilla luciferase activities were measured sequentially in the same cell extract using buffers containing D-luciferine and coelenterazine, respectively. Measurements of luminescence were done in a BMG-luminometer.
(§2) The potencies of Compound 21/3 and its analog, Compound pre-6/3, against LXRα and LXRβ were evaluated in biochemical binding assays, cellular mammalian two-hybrid (M2H) interaction assays evaluating nuclear receptor co-repressor (NCOR) recruitment, and cellular reporter assays evaluating transcriptional activity (Table 5).

LXRα [3] = target: T3, LXRα (Homo sapiens, UniProt Q13133); test: LXR Gal4 reporter transient transfection assay (mammalian two-hybrid, HEK293), LXRα; format: cell-based; details: ligand-binding domain (LBD) of LXRα, HEK293; read-out: LBD-M2H Gal4α
T3 construct: expressed in transfected cells; host or cells: HEK293
T3 sequence (Q13133 155-447): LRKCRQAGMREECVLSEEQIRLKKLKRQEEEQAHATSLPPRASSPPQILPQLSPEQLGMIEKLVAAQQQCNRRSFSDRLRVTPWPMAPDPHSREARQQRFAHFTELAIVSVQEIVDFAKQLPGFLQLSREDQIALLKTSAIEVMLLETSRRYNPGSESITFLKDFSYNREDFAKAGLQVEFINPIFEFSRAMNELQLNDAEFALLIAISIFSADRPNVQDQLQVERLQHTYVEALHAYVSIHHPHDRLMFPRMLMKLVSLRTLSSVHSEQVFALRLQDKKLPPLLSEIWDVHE
Procedure: as §1, §2

LXRα [4] = target: T4, LXRα (Homo sapiens, UniProt Q13133); test: as above; format: cell-based; set-up: expressed in transfected cells; host or cells: HEK293; details: full length (FL) LXRα, HEK293; read-out: FL-M2H Gal4α
T4 sequence (Q13133 1-447): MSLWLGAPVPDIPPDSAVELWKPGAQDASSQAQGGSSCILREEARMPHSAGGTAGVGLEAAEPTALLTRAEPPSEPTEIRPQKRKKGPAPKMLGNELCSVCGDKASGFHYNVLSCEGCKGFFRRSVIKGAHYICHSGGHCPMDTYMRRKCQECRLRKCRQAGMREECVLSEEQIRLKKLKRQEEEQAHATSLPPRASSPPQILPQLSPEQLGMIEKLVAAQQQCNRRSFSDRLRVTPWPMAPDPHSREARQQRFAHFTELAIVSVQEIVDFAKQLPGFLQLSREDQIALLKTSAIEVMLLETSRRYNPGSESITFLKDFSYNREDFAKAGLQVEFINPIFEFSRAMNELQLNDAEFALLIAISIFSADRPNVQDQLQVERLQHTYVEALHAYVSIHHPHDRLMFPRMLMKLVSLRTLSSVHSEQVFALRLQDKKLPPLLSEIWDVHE
Procedure: as §1, §2

LXRβ [5] = target: T5, LXRβ (Homo sapiens, UniProt P55055); test: LXR Gal4 reporter transient transfection assay (mammalian two-hybrid, HEK293), LXRβ; format: cell-based; set-up: LXRβ (amino acids 156-461); expressed in transfected cells; host or cells: HEK293; details: full length (FL) LXRβ, HEK293; read-out: FL-M2H Gal4β
T5 sequence (P55055 1-460): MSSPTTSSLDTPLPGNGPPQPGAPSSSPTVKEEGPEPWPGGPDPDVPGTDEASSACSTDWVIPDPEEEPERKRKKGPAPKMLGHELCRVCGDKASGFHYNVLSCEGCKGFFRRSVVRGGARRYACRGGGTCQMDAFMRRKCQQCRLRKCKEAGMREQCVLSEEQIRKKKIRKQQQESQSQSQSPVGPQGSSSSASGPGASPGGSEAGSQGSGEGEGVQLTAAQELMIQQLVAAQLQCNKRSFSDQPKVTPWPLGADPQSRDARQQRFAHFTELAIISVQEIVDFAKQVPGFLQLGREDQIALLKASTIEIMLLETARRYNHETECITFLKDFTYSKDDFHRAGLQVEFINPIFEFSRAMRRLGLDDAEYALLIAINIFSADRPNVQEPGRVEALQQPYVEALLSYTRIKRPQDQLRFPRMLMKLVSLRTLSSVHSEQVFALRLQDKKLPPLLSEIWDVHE
In short: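 Mammalian two-hybrid read-out of LXR–coactivator (SRC1) or corepressor (NCoR) interaction: firefly luciferase under GAL4 response elements, normalised via Renilla co-transfection. LXRα/β full-length or LBD fusions expressed transiently in HEK293; compounds (final DMSO ≤0.2%) given 4 h after transfection for 16 h before lysis.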

Row | Compound | EC50 [1] [nM] | EC50 (LXRβ [2]) [nM] | EC50 (LXRα [3]) [nM] | EC50 (LXRα [4]) [nM] | EC50 (LXRβ [5]) [nM]
1 | Cc1cccc(S(=O)(=O)n2c(-c3cccc(N4CC(C(=O)O)C4)c3)c(-c3ccsc3C#N)c3cc(F)ccc32)c1 [3/8] | 1000 to 10000 | < 100 | 100 to 1000 | – | –
2 | Cc1ccc(S(=O)(=O)n2c(-c3cccc(-c4ccc(C(N)=O)cc4)c3)c(-c3ccsc3C#N)c3cc(F)ccc32)cc1 [6/2] | 100 to 1000 | – | – | < 100 | < 100
3 | Cc1cccc(C#N)c1-c1c(-c2cccc(-c3ccc(C(=O)O)cc3Cl)c2)n(S(=O)(=O)c2ccc(C(F)F)cc2)c2ccc(F)cc12 [11/36] | < 100 | – | – | < 100 | < 100
4 | N#Cc1cccc(C#N)c1-c1c(-c2cccc(-c3ccc(C(=O)O)cc3)c2)n(S(=O)(=O)c2ccc(C(F)F)cc2)c2ccc(F)cc12 [11/50] | < 100 | – | – | < 100 | < 100
5 | COc1ccc(S(=O)(=O)n2c(-c3cccs3)c(-c3ccsc3C#N)c3ccccc32)cc1 [20/14] | 100 to 1000 | < 100 | < 100 | – | –
6 | N#Cc1cccc(-c2c(-c3cccc(-c4ccc(C(=O)O)cc4Cl)c3)n(S(=O)(=O)c3ccc(C(F)F)cc3)c3ccc(F)cc23)c1 [C11/48] | < 100 | – | – | < 100 | < 100
7 | Cc1ccc(S(=O)(=O)n2c(-c3cccc(-c4ccc(CN(C)C)cc4Cl)c3)c(-c3ccsc3C#N)c3cc(F)ccc32)cc1 [Compound 2] | 100 to 1000 | – | – | < 100 | < 100
8 | Cc1ccc(S(=O)(=O)n2c(-c3cccc(-c4cncc(S(=O)(=O)CC(=O)O)c4)c3)c(-c3ccsc3C#N)c3ccccc32)cc1 [Compound 5] | 100 to 1000 | – | – | 1000 to 10000 | 1000 to 10000
9 | Cc1ccc(S(=O)(=O)n2c(-c3cccc(-c4ccc(C(=O)NO)cc4)c3)c(-c3ccsc3C#N)c3cc(F)ccc32)cc1 [Compound 6] | 100 to 1000 | – | – | < 100 | < 100
